# Test results as given in patent US20040152785A1, “Novel crystal of n-hydroxy-2 (s)-methyl-5-ethoxymethoxy-4(s)-[n-(4-phenoxyphenylcarbonyl)amino] pentanamide, process for their production and medicines containing the crystals as the active ingredient” (priority 2000, published 2004).
# Assays:
# [1] = Oral absorption test: capsule formulations given orally to fed beagles, concentration in plasma; format: in vivo; conditions: beagle, 50 mg/kg
# Description: The compound of the present invention (2 g), DK ester SS (Daiichi Kogyo Seiyaku) and lactose (2.9 g) were weighed and the mixture was mixed slightly in a mortar and the mixture was filtered through 60 mesh strainer twice to give pharmaceutical powder. The pharmaceutical powder was filled in No.0 gelatin capsule 250 mg/cap each. By this method, capsule formulations containing type-A and type-C crystal were prepared respectively.
# A beagle was fed with solid food (240 g) and after 30 minutes above prepared capsules were administered in a stomach using sonde for oral administration and tap water (20 ml) was administered with sonde for oral administration.
# After administration, 15 minutes, 30 minutes, 1 hour, 2 hours and 3 hours taken a blood of 1 ml from cephalic vein using heparin dealt syringe. The taken sample was disposed under 12000 rpm for 2 minutes and plasma was separated and the concentration of the compound in plasma (μg/ml) was measured.
# The dose given to the beagle was 50 mg/kg and 4 beagles for type-A crystal and 3 beagles for type-C crystal.
# [2] = Stability test: preservation of crystal powder, DSC caloric transition (ΔH) and X-ray diffraction; format: physicochemical
# Description: Weighing out over approximately 50 mg of type-A crystal powder, it was preserved under the condition of
# 1) 40° C., 75% RH (relative humidity), unsealed for a month,
# 2) 40° C., sealed tightly for 6 months.
# The type-A crystal preserved under above conditions and another type-A crystal which was preserved at 5° C. were subjected to measurement of differential scanning calorimetry (DSC) and caloric transition (ΔH) per 1 g was calculated from endothermic peak chart (see FIGS. 14-16)
# ΔH=peak area/sample weight
# [3] = test system: matrix metalloproteinase; conditions: as disclosed in WO 99/19296; cited from earlier work
smiles,measurement,setting,value
"CCOCOC[C@H](C[C@H](C)C(=O)NO)NC(=O)c1ccc(Oc2ccccc2)cc1 [Type-C crystal, N-hydroxy-2(S)-methyl-5-ethoxymethoxy-4(S)-[N-(4-phenoxyphenylcarbonyl)amino]pentanamide, reference compound]","Cmax (maximum drug concentration), average value",[1]; plasma,2000 ng/mL
same,"AUC (area under the blood concentration-time curve), average value","[1]; plasma, sampling up to 3 hours",3500 ng·h/mL
"CCOCOC[C@H](C[C@H](C)C(=O)NO)NC(=O)c1ccc(Oc2ccccc2)cc1 [Type-A crystal, N-hydroxy-2(S)-methyl-5-ethoxymethoxy-4(S)-[N-(4-phenoxyphenylcarbonyl)amino]pentanamide]","concentration in plasma, comparison of crystals",[1],higher concentration in plasma than type-C crystal
same,AUC,"[1]; dog, plasma, po, AUC (area under the blood concentration-time curve), average value, sampling up to 3 hours",5100 ng·h/mL
same,Cmax,"[1]; dog, plasma, po, plasma, read-out: Cmax (maximum drug concentration), average value",3600 ng/mL
same,"ΔH (calorie variation of endothermic peak, absolute value)","[2]; 1 month, 40° C.-75% RH, unsealed",14.80 J/g
same,"ΔH (calorie variation of endothermic peak, absolute value)","[2]; 6 months, 40° C., sealed tightly",13.41 J/g
same,crystal stability (crystal transition on preservation),"[2]; 40° C.-75% RH a month and 40° C. 6 months, DSC and X-ray diffraction",stable crystal
same,"ΔH (calorie variation of endothermic peak, absolute value)",[2]; initial (type-A crystal preserved at 5° C.),13.40 J/g
"CCOCOC[C@H](C[C@H](C)C(=O)NO)NC(=O)c1ccc(Oc2ccccc2)cc1 [compound (I), N-hydroxy-2(S)-methyl-5-ethoxymethoxy-4(S)-[N-(4-phenoxyphenylcarbonyl)amino]pentanamide]",inhibitory activity against matrix metalloproteinase (MMP),[3],has an inhibitory activity against matrix metalloproteinase
